Assay results published in PubChem BioAssay (NCI).
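GI50: concentration for 50% inhibition of growth. TGI denotes the concentration required for complete inhibition of growth.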

Tests used:
Experiment in all cases: growth of human tumour cells (NCI), 384-well format
[1] = tested on: NCI-H23 lung
[2] = tested on: DU-145 prostate
[3] = tested on: OVCAR-5 ovarian
[4] = tested on: MDA-MB-231 breast
[5] = tested on: NCI-H322M lung
[6] = tested on: ACHN renal
[7] = tested on: HL-60(TB) leukemia
[8] = tested on: SF-539 CNS
[9] = tested on: SF-295 CNS
[10] = tested on: SK-MEL-2 melanoma
[11] = tested on: BT-549 breast
[12] = tested on: UACC-62 melanoma
[13] = tested on: UACC-257 melanoma
[14] = tested on: EKVX NSCLC
[15] = tested on: LOX IMVI melanoma
[16] = tested on: 786-0 renal
[17] = tested on: SR leukemia
[18] = tested on: HCT-15 colon
[19] = tested on: OVCAR-8 ovarian
[20] = tested on: NCI/ADR-RES ovarian
[21] = tested on: OVCAR-3 ovarian
[22] = tested on: KM12 colon
[23] = tested on: MCF7 breast
[24] = tested on: PC-3 prostate
[25] = tested on: SN12C renal
[26] = tested on: CCRF-CEM leukemia
[27] = tested on: SK-MEL-5 melanoma
[28] = tested on: A498 renal
[29] = tested on: MDA-MB-435 melanoma
[30] = tested on: COLO 205 colon

## CC[C@H](Nc1ncnc2nc[nH]c12)c1oc2ccccc2c(=O)c1-c1cccc(F)c1
[1]
  GI50: 23.9 µM
  TGI: 78.3 µM
[2]
  GI50: 29.6 µM
  TGI: > 100 µM
[3]
  GI50: 39.9 µM
  TGI: > 100 µM
[4]
  GI50: 26.2 µM
  TGI: > 100 µM
[5]
  GI50: 90.5 µM
  TGI: > 100 µM
[6]
  GI50: 23.2 µM
  TGI: 77.5 µM
[7]
  GI50: 21.8 µM
  TGI: 36.6 µM
[8]
  GI50: 45.9 µM
  TGI: > 100 µM
[9]
  GI50: 20.7 µM
  TGI: > 74.6 µM
[10]
  GI50: 13.7 µM
  TGI: 30.1 µM
[11]
  GI50: 15.5 µM
  TGI: 39.5 µM
[12]
  GI50: 16.3 µM
  TGI: 36.8 µM
[13]
  GI50: 33 µM
  TGI: > 87.9 µM
[14]
  GI50: 23.8 µM
  TGI: 70.7 µM
[15]
  GI50: 26.3 µM
  TGI: 82.1 µM
[16]
  GI50: 27.2 µM
  TGI: > 95 µM
[17]
  GI50: 12.4 µM
  TGI: 25.2 µM
[18]
  GI50: 30.7 µM
  TGI: 99.1 µM
[19]
  GI50: 32.6 µM
  TGI: > 100 µM
[20]
  GI50: 24 µM
  TGI: 60.4 µM
[21]
  GI50: 18.2 µM
  TGI: 40.8 µM
[22]
  GI50: 36.8 µM
  TGI: > 100 µM
[23]
  GI50: 29.6 µM
  TGI: > 87.3 µM
[24]
  GI50: 18.5 µM
  TGI: 52.6 µM
[25]
  GI50: 30.5 µM
  TGI: 98.9 µM
[26]
  GI50: 16.8 µM
  TGI: 31 µM
[27]
  GI50: 17.9 µM
  TGI: 39.7 µM
[28]
  GI50: 27.8 µM
  TGI: > 100 µM
[29]
  GI50: 24.2 µM
  TGI: 56.5 µM
[30]
  GI50: 42.4 µM
  TGI: > 100 µM
